Test results: patent US9895349B2, “N-phenyl-carboxamide derivatives and the use thereof as medicaments for the treatment of hepatitis B” (priority 2013, dated 2018)

Tests used:
HBV [1] = experiment: Anti-HBV activity, HepG2.2.15 stable transfected cell line, HBV DNA from secreted virions by realtime PCR; format: cell-based, Hepatitis B virus (HBV); details: HepG2.2.15 cells, 6 days of treatment
HBV [2] = experiment: Anti-HBV activity, HepG2.117 inducibly HBV producing cell line (Tet-off), intracellular HBV DNA by realtime PCR; format: cell-based, Hepatitis B virus (HBV); details: HepG2.117 cells, 3 days of treatment
HepG2 cells = experiment: Cytotoxicity in HepG2 cells, Resazurin assay; details: read-out: HepG2 4 days CC50, 4 days incubation, Resazurin viability
[3] = Cytotoxicity in HepG2 cells, Resazurin assay; details: human
in vitro = details: human
[4] = Hepatitis B virus, HepG2.2.15, 144 h
[5] = Hepatitis B virus, HepG2.117, 72 h

SMILES	EC50 (HBV [1])	EC50 (HBV [2])	CC50 (HepG2 cells)	EC50 (HBV [1]; [4])	EC50 (HBV [2]; [5])	CC50 at 4 days [3]	CC50 at 4 days (in vitro)
COCCS(=O)(=O)N1CC[C@H](C(=O)Nc2ccc(F)c(C)c2)C1 [Compound 14]	1.9 µM	1.5 µM	> 25 µM	–	–	–	–
Cc1cc(NC(=O)C2CCN(S(=O)(=O)C3CCOC3)C2)ccc1F (mixture of isomers) [Compound 12]	4.1 µM	2.3 µM	> 25 µM	–	–	–	–
Cc1cc(NC(=O)[C@H]2CCN(S(=O)(=O)C3CCCCC3)C2)ccc1F [Compound 23]	0.96 µM	1.4 µM	> 25 µM	–	–	–	–
Cc1cc(NC(=O)C2(C)CCN(S(=O)(=O)CC(C)C)C2)ccc1F (racemic) [Compound 29b, N-(4-fluoro-3-methyl-phenyl)-1-isobutylsulfonyl-3-methyl-pyrrolidine-3-carboxamide]	18.3 µM	6.9 µM	> 25 µM	–	–	–	–
Cc1cc(NC(=O)[C@H]2CCN(C(=O)OC3COC3)C2)ccc1F [Compound 20]	16.1 µM	4 µM	> 25 µM	–	–	–	–
Cc1cc(NC(=O)C2CN(S(=O)(=O)NC(C)C)C3CC23)ccc1F (single isomer, unassigned) [Compound 36b, N-(4-fluoro-3-methyl-phenyl)-2-(isopropylsulfamoyl)-2-azabicyclo[3.1.0]hexane-4-carboxamide]	0.46 µM	0.38 µM	> 25 µM	–	–	–	–
CCC(CC)S(=O)(=O)N1CC[C@H](C(=O)Nc2ccc(F)c(C)c2)C1 [Compound 19]	8.4 µM	2.9 µM	> 25 µM	–	–	–	–
Cc1cc(NC(=O)C2(F)CCN(S(=O)(=O)N[C@H]3CCOC3)C2)ccc1F (single isomer, unassigned) [Compound 42b]	3.25 µM	1.69 µM	> 25 µM	–	–	–	–
Cc1cc(NC(=O)C2(C)CCN(S(=O)(=O)CC(C)C)C2)ccc1F (racemic) [Compound 29a, N-(4-fluoro-3-methyl-phenyl)-1-isobutylsulfonyl-3-methyl-pyrrolidine-3-carboxamide]	> 25 µM	> 25 µM	> 25 µM	–	–	–	–
Cc1cc(NC(=O)C2CCN(S(=O)(=O)C3CS(=O)(=O)CC3O)C2)ccc1F (mixture of isomers) [Compound 15]	12.5 µM	14.7 µM	> 25 µM	–	–	–	–
Cc1cc(NC(=O)[C@H]2CCN(C(=O)OC(C)C)C2)ccc1F [Compound 21]	5.4 µM	2.7 µM	> 25 µM	–	–	–	–
Cc1cc(NC(=O)C2CCN(S(=O)(=O)C(C)CC(C)C)C2)ccc1F (mixture of isomers) [Compound 17]	5.9 µM	5.9 µM	> 25 µM	–	–	–	–
Cc1cc(NC(=O)[C@H]2CCN(S(C)(=O)=O)C2)ccc1F [Compound 4]	16.4 µM	10.7 µM	> 25 µM	–	–	–	–
Cc1cc(NC(=O)[C@H]2CCN(S(=O)(=O)C(C)C)C2)ccc1F [Compound 7]	13.5 µM	4.7 µM	> 25 µM	–	–	–	–
Cc1cc(NC(=O)C2CCN(S(=O)(=O)C3CCS(=O)(=O)C3)C2)ccc1F (mixture of isomers) [Compound 13]	4.6 µM	3.4 µM	> 25 µM	–	–	–	–
Cc1cc(NC(=O)[C@H]2CCN(S(=O)(=O)NC3CCN(C)C3=O)C2)ccc1F (stereo partly drawn) [Compound 48, (3S)—N-(4-fluoro-3-methyl-phenyl)-1-[(1-methyl-2-oxo-pyrrolidin-3-yl)sulfamoyl]pyrrolidine-3-carboxamide]	–	–	–	1.37 µM	0.57 µM	> 25 µM	–

SMILES	EC50 (HBV [1])	EC50 (HBV [2])	CC50 (HepG2 cells)	EC50 (HBV [1]; [4])	EC50 (HBV [2]; [5])	CC50 at 4 days [3]	CC50 at 4 days (in vitro)
Cc1cc(NC(=O)[C@H]2CCN(S(=O)(=O)NC3(CCO)COC3)C2)ccc1F [Compound 47, (3S)—N-(4-fluoro-3-methyl-phenyl)-1-[[3-(2-hydroxyethyl)oxetan-3-yl]sulfamoyl]pyrrolidine-3-carboxamide]	–	–	–	0.065 µM	0.091 µM	> 25 µM	–
Cc1cc(NC(=O)C2CCN(S(=O)(=O)C3CCCCC3O)C2)ccc1F (mixture of isomers) [Compound 16]	3.5 µM	2.5 µM	> 25 µM	–	–	–	–
Cc1cc(NC(=O)C23CC2CN(S(=O)(=O)N[C@H]2CCOC2)C3)ccc1F (stereo partly drawn) [Compound 43, N-(4-fluoro-3-methyl-phenyl)-3-[[(3S)-tetrahydrofuran-3-yl]sulfamoyl]-3-azabicyclo[3.1.0]hexane-1-carboxamide]	–	–	–	0.58 µM	0.85 µM	> 25 µM	–
COC(=O)N1CC[C@H](C(=O)Nc2ccc(F)c(C)c2)C1 [Compound 22]	13.6 µM	8.6 µM	> 25 µM	–	–	–	–
COCC(C)S(=O)(=O)N1CCC(C(=O)Nc2ccc(F)c(C)c2)C1 (mixture of isomers) [Compound 18]	5.8 µM	5.3 µM	> 25 µM	–	–	–	–
Cc1cc(NC(=O)[C@H]2CCN(S(=O)(=O)C3CC3)C2)ccc1F [Compound 5]	9.1 µM	2 µM	> 25 µM	–	–	–	–
Cc1cc(NC(=O)C2(F)CCN(S(=O)(=O)NC(C)C)C2)ccc1F (racemic) [Compound 35b, 3-fluoro-N-(4-fluoro-3-methyl-phenyl)-1-(isopropylsulfamoyl)pyrrolidine-3-carboxamide]	> 5 µM	> 5 µM	> 25 µM	–	–	–	–
Cc1cc(NC(=O)[C@H]2CCN(S(=O)(=O)NCC(C)C)C2)ccc1F [Compound 31, (3S)—N-(4-fluoro-3-methyl-phenyl)-1-(isobutylsulfamoyl)pyrrolidine-3-carboxamide]	–	–	–	0.45 µM	0.47 µM	> 25 µM	–
Cc1cc(NC(=O)[C@H]2CCN(C(=O)OCC(C)C)C2)ccc1F [Compound 26, isobutyl (3S)-3-[(4-fluoro-3-methyl-phenyl)carbamoyl]pyrrolidine-1-carboxylate]	–	–	–	4.4 µM	0.41 µM	> 25 µM	–
Cc1cc(NC(=O)[C@@]23C[C@@H]2CN(S(=O)(=O)CC(C)C)C3)ccc1F [Compound 27, (1S,5S)—N-(4-fluoro-3-methyl-phenyl)-3-isobutylsulfonyl-3-azabicyclo[3.1.0]hexane-1-carboxamide]	–	–	–	2.8 µM	2 µM	> 25 µM	–
Cc1cc(NC(=O)[C@H]2C[C@@H]3CC[C@H]2N3S(=O)(=O)CC(C)C)ccc1F (racemic) [Compound 30, N-(4-fluoro-3-methyl-phenyl)-7-isobutylsulfonyl-7-azabicyclo[2.2.1]heptane-3-carboxamide]	–	–	–	0.61 µM	4.7 µM	–	> 25 µM
Cc1cc(NC(=O)C2CCN(S(=O)(=O)CC(C)C)C2)ccc1F (stereo not drawn) [Compound 1, N-(4-fluoro-3-methyl-phenyl)-1-isobutylsulfonyl-pyrrolidine-3-carboxamide]	–	–	–	0.94 µM	0.72 µM	> 25 µM	–
CCCS(=O)(=O)N1CC[C@H](C(=O)Nc2ccc(F)c(C)c2)C1 [Compound 6, (3S)—N-(4-fluoro-3-methyl-phenyl)-1-propylsulfonyl-pyrrolidine-3-carboxamide]	–	–	–	1.9 µM	0.62 µM	> 25 µM	–
CC1(NS(=O)(=O)N2CC[C@H](C(=O)Nc3ccc(F)c(F)c3)C2)COC1 [Compound 44, (3S)—N-(3,4-difluorophenyl)-1-[(3-methyloxetan-3-yl)sulfamoyl]pyrrolidine-3-carboxamide]	–	–	–	0.61 µM	0.42 µM	> 25 µM	–
Cc1cc(NC(=O)C2CN(S(=O)(=O)NC(C)C)C3CC23)ccc1F (single isomer, unassigned) [Compound 36a, N-(4-fluoro-3-methyl-phenyl)-2-(isopropylsulfamoyl)-2-azabicyclo[3.1.0]hexane-4-carboxamide]	2.39 µM	2.65 µM	–	–	–	> 25 µM	–
Cc1cc(NC(=O)[C@H]2CCN(S(=O)(=O)NC3(C)COC3)C2)ccc1F [Compound 34, (3S)—N-(4-fluoro-3-methyl-phenyl)-1-[(3-methyloxetan-3-yl)sulfamoyl]pyrrolidine-3-carboxamide]	–	–	–	0.11 µM	0.11 µM	> 25 µM	–
